From PubChem BioAssay (NCI)
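Test compounds were applied to cells in 96-well plates for 48 hours at 5 doses. GI50 marks 50% less growth. TGI: concentration producing complete growth inhibition.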

Key:
Assay in all cases: growth of human tumour cells (NCI), 48 h
[1] = system: U251 CNS
[2] = system: IGROV1 ovarian
[3] = system: KM12 colon
[4] = system: RXF 393 renal
[5] = system: MCF7 breast
[6] = system: SF-295 CNS
[7] = system: NCI-H226 lung
[8] = system: UACC-257 melanoma
[9] = system: RPMI-8226 leukemia
[10] = system: SF-539 CNS

`N=c1c2c(=S)n(-c3ccccc3)c(=S)n(-c3ccccc3)c2nc(SCCCN2CCN(c3cccc(Cl)c3)CC2)n1-c1ccccc1` showed a TGI [1] greater than 100 µM, a TGI [2] greater than 100 µM and a TGI [3] greater than 100 µM. For the same molecule, the TGI [4] was greater than 100 µM, the TGI [5] was greater than 100 µM and the TGI [6] was greater than 100 µM. For the same molecule, the TGI [7] was greater than 100 µM, the TGI [8] was greater than 100 µM and the TGI [9] was greater than 100 µM. For the same molecule, the TGI [10] was greater than 100 µM.

Work on `COC(=O)c1cccc(N[C@@H]2c3cc4c(cc3C(c3cc(OC)c(O)c(OC)c3)[C@H]3C(=O)OCC32)OCO4)c1` (stereo partly drawn) yielded a TGI [1] of 12.2 µM, a TGI [2] greater than 50.7 µM and a TGI [3] of 10.2 µM. For the same molecule, the TGI [4] was 15.9 µM, the TGI [5] was greater than 67.7 µM and the TGI [6] was 5.96 µM. It also gave a TGI [7] of 3.6 µM, a TGI [8] of 7.82 µM and a TGI [9] greater than 20.2 µM. For the same molecule, the TGI [10] was 3.64 µM.

`C=C1C(=O)OC2/C=C(/C)C3CC(O)C(C)(CC(OC(=O)/C(C)=C/C)C12)O3` (stereo not drawn) showed a TGI [1] of 25.3 µM, a TGI [2] of 18.7 µM and a TGI [3] of 11.3 µM. The TGI [4] was 3.49 µM, the TGI [6] was greater than 54 µM and the TGI [7] was 35.3 µM. The TGI [8] was 17.6 µM, the TGI [9] was greater than 22.4 µM and the TGI [10] was 4.86 µM.

In the case of `O=C(O)CS`, the TGI [1] was greater than 100 µM, the TGI [2] was greater than 100 µM and the TGI [3] was greater than 100 µM. For the same molecule, the TGI [4] was greater than 100 µM, the TGI [6] was greater than 100 µM and the TGI [7] was greater than 100 µM. It also gave a TGI [8] greater than 100 µM, a TGI [9] greater than 100 µM and a TGI [10] greater than 100 µM.

`Nc1nc(Cl)cc(OCC2(CO)CC(OCc3ccccc3)C2)n1` (stereo not drawn) gave a GI50 [1] of 55 µM, a GI50 [3] of 55.5 µM and a GI50 [4] of 48.6 µM. For the same molecule, the GI50 [5] was 46.2 µM, the GI50 [6] was 50.1 µM and the GI50 [7] was 74 µM. For the same molecule, the GI50 [8] was 49.5 µM and the GI50 [9] was 26.7 µM.

Molecule `COc1cc(/C=C/c2cc(/C=C/c3ccc(O)c(OC)c3)nc(N)n2)ccc1O` has a GI50 [1] of 1.79 µM, a TGI [1] of 5.69 µM and a GI50 [2] of 2.95 µM. For the same molecule, the TGI [2] was 7.08 µM, the GI50 [3] was 1.63 µM and the TGI [3] was 3.32 µM. The GI50 [5] was 1.81 µM, the TGI [5] was 6.33 µM and the GI50 [6] was 1.93 µM. It also gave a TGI [6] of 4.54 µM, a GI50 [7] of 1.83 µM and a TGI [7] of 4.34 µM. It also gave a GI50 [8] of 1.53 µM, a TGI [8] of 3.5 µM and a GI50 [9] of 1.29 µM. For the same molecule, the TGI [9] was 4.18 µM, the GI50 [10] was 2.05 µM and the TGI [10] was 5.73 µM.

`CC(=O)Oc1ccc2c(c1)oc1c3ccc(OC(C)=O)cc3n(C)c(=O)c21` gave a TGI [1] greater than 100 µM, a TGI [2] greater than 100 µM and a TGI [3] of 20.6 µM. For the same molecule, the TGI [4] was greater than 100 µM, the TGI [5] was greater than 100 µM and the TGI [6] was greater than 100 µM. It also gave a TGI [7] of 53.1 µM, a TGI [8] greater than 100 µM and a TGI [10] greater than 100 µM.

Work on `C=C1C(=O)C[C@@]23CCC[C@@]12CC(OCOC)C3` (stereo partly drawn) yielded a TGI [1] of 21 µM, a TGI [2] of 6.02 µM and a TGI [3] of 9.48 µM. For the same molecule, the TGI [4] was 2.17 µM, the TGI [5] was 3.74 µM and the TGI [6] was 17.3 µM. It also gave a TGI [7] of 4.66 µM, a TGI [8] of 7.82 µM and a TGI [9] of 9.8 µM. For the same molecule, the TGI [10] was 9.5 µM.

`S=P1(N2CCCCC2)Oc2ccc3ccccc3c2-c2c(ccc3ccccc23)O1` was tested, and the TGI [1] was greater than 100 µM, the TGI [2] was greater than 100 µM and the TGI [3] was greater than 100 µM. For the same molecule, the TGI [4] was greater than 100 µM, the TGI [5] was greater than 100 µM and the TGI [6] was greater than 100 µM. The TGI [7] was greater than 100 µM, the TGI [8] was greater than 100 µM and the TGI [9] was greater than 100 µM. For the same molecule, the TGI [10] was greater than 100 µM.

With `Cc1cc(C)c2c(c1)CC1(Cc3c(C)ccc(C)c3C1=O)C2=O` (stereo not drawn) the TGI [1] was greater than 100 µM, the TGI [2] was greater than 100 µM and the TGI [3] was greater than 100 µM. It also gave a TGI [4] greater than 100 µM, a TGI [5] greater than 100 µM and a TGI [6] greater than 100 µM. It also gave a TGI [7] greater than 100 µM, a TGI [8] greater than 100 µM and a TGI [9] greater than 100 µM. For the same molecule, the TGI [10] was greater than 100 µM.

`N=C(N)c1ccc(-c2ccc(-c3ccccc3)s2)cc1` showed a GI50 [4] of 1.72 µM, a TGI [4] of 3.39 µM and a GI50 [7] of 3.01 µM. For the same molecule, the TGI [7] was 14.6 µM, the GI50 [10] was 1.63 µM and the TGI [10] was 3 µM.

`O=[N+]([O-])c1ccccc1NC1c2ccccc2Oc2ccccc21` gave a GI50 [1] of 4.88 µM, a TGI [1] greater than 100 µM and a GI50 [2] of 16.9 µM. The TGI [2] was greater than 100 µM, the GI50 [3] was 4.34 µM and the TGI [3] was greater than 100 µM. The GI50 [4] was 3.35 µM, the TGI [4] was 16.6 µM and the GI50 [5] was 4.13 µM. For the same molecule, the TGI [5] was greater than 100 µM, the GI50 [6] was 4.45 µM and the TGI [6] was greater than 100 µM. The GI50 [7] was 5.91 µM, the TGI [7] was greater than 100 µM and the GI50 [8] was 7.2 µM. It also gave a TGI [8] greater than 100 µM, a GI50 [9] of 5.86 µM and a TGI [9] greater than 100 µM. The GI50 [10] was 3.27 µM and the TGI [10] was greater than 100 µM.

`O=C1C=CC2=[N+]([O-])C(c3ccccc3)(c3ccccc3)C(=Nc3ccccc3)C2=C1` gave a TGI [1] of 7.32 µM, a TGI [2] of 3.45 µM and a TGI [4] of 3.04 µM. The TGI [6] was 27.7 µM, the TGI [7] was 22.3 µM and the TGI [8] was 4.11 µM. The TGI [9] was 7.83 µM and the TGI [10] was 19.5 µM.

For `CCCCCCCC/C=C\CCCCCCCC(=O)O`, the TGI [1] was 231 µM, the TGI [2] was greater than 281 µM and the TGI [3] was greater than 500 µM. The TGI [4] was 168 µM, the TGI [5] was 215 µM and the TGI [6] was 176 µM. For the same molecule, the TGI [7] was 227 µM, the TGI [8] was 201 µM and the TGI [9] was 277 µM. The TGI [10] was 184 µM.

Work on `CN(C)Cc1cc(C(C)(C)C)ccc1-c1ccc(C(C)(C)C)cc1CN(C)C` yielded a TGI [1] greater than 100 µM, a TGI [2] greater than 100 µM and a TGI [3] greater than 100 µM. For the same molecule, the TGI [4] was greater than 100 µM, the TGI [5] was greater than 100 µM and the TGI [6] was greater than 100 µM. It also gave a TGI [7] greater than 100 µM, a TGI [8] greater than 100 µM and a TGI [9] greater than 100 µM. The TGI [10] was greater than 100 µM.

Molecule `CCN(CC)CCCNc1ncc(C)c2[nH]c3ccncc3c12` has a TGI [1] of 30.6 µM, a TGI [2] of 27.3 µM and a TGI [3] of 42 µM. For the same molecule, the TGI [4] was 23 µM, the TGI [5] was 17.4 µM and the TGI [6] was 29.7 µM. It also gave a TGI [7] of 20.3 µM, a TGI [8] of 18.5 µM and a TGI [9] greater than 100 µM. It also gave a TGI [10] of 20.9 µM.

`CN1CCCCC(C#N)(c2ccccc2)CC1` (stereo not drawn) gave a TGI [1] greater than 100 µM, a TGI [2] greater than 100 µM and a TGI [3] greater than 100 µM. For the same molecule, the TGI [4] was greater than 100 µM, the TGI [5] was greater than 100 µM and the TGI [6] was greater than 100 µM. It also gave a TGI [8] greater than 100 µM and a TGI [9] greater than 100 µM.

Work on `COC(C(=O)C(O)C(C)O)C1CC2C=C3C=C(OC4CC(OC5CC(O)C(OC)C(C)O5)C(OC(C)=O)C(C)O4)C(C)C(=O)C3=C(O)C2=C(O)C1OC1CC(OC2CC(OC3CC(C)(O)C(OC(=O)C(C)C)C(C)O3)C(O)C(C)O2)C(O)C(C)O1` (stereo not drawn) yielded a TGI [2] greater than 100 µM, a TGI [3] of less than 0.01 µM and a TGI [4] of less than 0.01 µM. The TGI [5] was greater than 100 µM, the TGI [7] was less than 0.01 µM and the TGI [8] was less than 0.01 µM. For the same molecule, the TGI [9] was less than 0.01 µM and the TGI [10] was less than 0.01 µM.
